We go through 18 compounds from ChEMBL document CHEMBL5291721, “A preclinical secondary pharmacology resource illuminates target-adverse drug reaction associations of marketed drugs” (Nat Commun, 2023).

Targets include Histamine H3 receptor (Homo sapiens, UniProt Q9Y5N1); D(3) dopamine receptor (Homo sapiens, UniProt P35462); Histamine H1 receptor (Homo sapiens, UniProt P35367).
The next assay deals with Cannabinoid receptor 1 (Homo sapiens, UniProt P21554). The class given is functional, cell-based.
Cannabinoid receptor 1, sequence (P21554 whole entry): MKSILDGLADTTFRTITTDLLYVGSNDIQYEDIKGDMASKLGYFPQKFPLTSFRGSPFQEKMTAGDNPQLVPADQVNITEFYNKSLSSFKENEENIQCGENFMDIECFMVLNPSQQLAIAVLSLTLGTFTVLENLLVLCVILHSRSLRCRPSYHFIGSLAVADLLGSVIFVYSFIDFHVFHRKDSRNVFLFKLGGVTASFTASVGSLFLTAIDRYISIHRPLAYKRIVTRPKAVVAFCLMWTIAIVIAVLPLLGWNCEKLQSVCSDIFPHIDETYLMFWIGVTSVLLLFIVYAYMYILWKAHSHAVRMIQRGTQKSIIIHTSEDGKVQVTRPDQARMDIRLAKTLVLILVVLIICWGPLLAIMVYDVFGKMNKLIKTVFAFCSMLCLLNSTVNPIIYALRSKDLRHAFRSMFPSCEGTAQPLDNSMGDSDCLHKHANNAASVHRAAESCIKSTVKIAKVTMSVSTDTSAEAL
The target of assay [1] is T1, Alpha-1A adrenergic receptor (Homo sapiens, UniProt P35348).
T1 sequence (P35348 whole entry): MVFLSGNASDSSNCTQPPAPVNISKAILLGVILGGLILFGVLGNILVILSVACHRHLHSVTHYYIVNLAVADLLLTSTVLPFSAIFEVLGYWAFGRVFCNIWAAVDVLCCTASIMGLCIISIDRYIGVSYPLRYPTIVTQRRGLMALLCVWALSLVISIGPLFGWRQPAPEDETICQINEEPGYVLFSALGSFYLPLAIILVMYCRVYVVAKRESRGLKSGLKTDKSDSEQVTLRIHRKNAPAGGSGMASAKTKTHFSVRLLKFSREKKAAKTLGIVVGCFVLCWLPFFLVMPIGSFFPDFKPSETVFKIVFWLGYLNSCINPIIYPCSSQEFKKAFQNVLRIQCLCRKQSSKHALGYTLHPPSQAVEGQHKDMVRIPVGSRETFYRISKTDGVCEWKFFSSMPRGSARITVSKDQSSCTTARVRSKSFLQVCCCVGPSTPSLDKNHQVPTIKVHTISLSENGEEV
The class given is functional, cell-based.

The target in assay [2] is Gamma-aminobutyric acid receptor subunit alpha-1 (Rattus norvegicus, UniProt P62813).
Gamma-aminobutyric acid receptor subunit alpha-1, sequence (P62813 whole entry): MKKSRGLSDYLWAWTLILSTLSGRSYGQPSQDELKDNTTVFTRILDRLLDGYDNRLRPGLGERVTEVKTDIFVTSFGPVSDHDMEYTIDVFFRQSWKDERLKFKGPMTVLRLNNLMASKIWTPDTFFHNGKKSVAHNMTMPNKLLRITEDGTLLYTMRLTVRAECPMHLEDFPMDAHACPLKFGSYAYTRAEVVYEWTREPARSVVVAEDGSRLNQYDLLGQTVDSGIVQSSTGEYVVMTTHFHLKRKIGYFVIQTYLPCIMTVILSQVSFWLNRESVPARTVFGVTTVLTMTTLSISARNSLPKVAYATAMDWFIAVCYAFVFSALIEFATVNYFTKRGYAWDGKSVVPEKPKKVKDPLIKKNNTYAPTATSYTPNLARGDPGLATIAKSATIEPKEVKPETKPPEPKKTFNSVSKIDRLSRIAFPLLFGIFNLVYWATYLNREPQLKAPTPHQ
Assay [3] addresses T1, Alpha-1A adrenergic receptor. The class given is functional, cell-based. This is another data set of the same source.
The next assay addresses T2, Glucocorticoid receptor (Homo sapiens, UniProt P04150).
T2 sequence (P04150 whole entry): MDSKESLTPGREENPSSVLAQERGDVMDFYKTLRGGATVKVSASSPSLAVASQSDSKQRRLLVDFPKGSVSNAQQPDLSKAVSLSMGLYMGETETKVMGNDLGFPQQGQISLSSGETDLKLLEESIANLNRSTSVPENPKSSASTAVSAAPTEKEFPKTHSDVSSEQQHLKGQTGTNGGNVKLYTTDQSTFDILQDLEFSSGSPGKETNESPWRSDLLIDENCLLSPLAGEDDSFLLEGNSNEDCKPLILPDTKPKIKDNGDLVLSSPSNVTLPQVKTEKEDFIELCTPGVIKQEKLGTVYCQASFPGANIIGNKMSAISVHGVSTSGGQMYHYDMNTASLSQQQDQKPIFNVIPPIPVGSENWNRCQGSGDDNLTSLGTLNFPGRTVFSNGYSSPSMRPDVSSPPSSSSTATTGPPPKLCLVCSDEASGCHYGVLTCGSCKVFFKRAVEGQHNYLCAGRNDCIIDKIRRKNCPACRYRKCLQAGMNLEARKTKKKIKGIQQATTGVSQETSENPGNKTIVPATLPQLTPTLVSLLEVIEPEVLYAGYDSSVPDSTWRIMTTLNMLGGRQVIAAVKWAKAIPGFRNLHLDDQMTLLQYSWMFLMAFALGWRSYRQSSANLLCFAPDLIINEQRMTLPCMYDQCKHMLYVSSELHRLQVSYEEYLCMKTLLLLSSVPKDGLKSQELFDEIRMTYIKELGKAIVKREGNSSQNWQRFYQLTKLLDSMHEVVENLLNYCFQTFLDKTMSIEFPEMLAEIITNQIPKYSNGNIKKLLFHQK

Assay [4] addresses cGMP-inhibited 3',5'-cyclic phosphodiesterase 3A (Homo sapiens, UniProt Q14432). The class given is functional.
Assay [5] deals with T3, Muscarinic acetylcholine receptor M1 (Homo sapiens, UniProt P11229).
T3 sequence (P11229 whole entry): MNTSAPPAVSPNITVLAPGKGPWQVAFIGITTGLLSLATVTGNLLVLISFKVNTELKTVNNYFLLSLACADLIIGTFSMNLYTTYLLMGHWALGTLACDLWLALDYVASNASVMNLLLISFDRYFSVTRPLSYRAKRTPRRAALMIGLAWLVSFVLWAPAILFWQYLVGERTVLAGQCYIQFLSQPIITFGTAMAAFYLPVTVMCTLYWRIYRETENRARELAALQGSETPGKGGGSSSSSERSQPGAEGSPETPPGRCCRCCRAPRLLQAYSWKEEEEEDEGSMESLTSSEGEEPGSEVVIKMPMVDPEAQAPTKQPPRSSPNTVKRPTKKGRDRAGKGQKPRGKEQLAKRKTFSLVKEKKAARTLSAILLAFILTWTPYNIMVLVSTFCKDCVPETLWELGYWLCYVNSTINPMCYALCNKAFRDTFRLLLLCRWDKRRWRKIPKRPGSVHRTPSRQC
It counts as functional.

Assay [6] has as its target 5-hydroxytryptamine receptor 2A (Homo sapiens, UniProt P28223). The class given is functional, cell-based.
The target in assay [7] is T4, Muscarinic acetylcholine receptor M2 (Homo sapiens, UniProt P08172).
T4 sequence (P08172 whole entry): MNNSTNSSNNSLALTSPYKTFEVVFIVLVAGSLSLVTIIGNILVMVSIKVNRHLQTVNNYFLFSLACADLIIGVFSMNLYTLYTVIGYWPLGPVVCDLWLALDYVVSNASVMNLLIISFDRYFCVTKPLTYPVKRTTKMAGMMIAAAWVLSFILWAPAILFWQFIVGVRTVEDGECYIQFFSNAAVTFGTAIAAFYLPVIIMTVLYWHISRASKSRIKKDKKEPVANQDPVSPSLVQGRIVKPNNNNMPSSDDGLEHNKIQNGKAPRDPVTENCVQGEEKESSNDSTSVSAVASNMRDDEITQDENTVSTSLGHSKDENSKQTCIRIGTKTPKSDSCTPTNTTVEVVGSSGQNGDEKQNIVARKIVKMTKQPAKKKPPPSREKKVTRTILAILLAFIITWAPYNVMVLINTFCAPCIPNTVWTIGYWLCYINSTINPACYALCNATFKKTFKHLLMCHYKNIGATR
It counts as functional, cell-based.

The target of assay [8] is T5, 5-hydroxytryptamine receptor 2B (Homo sapiens, UniProt P41595). It counts as functional, cell-based.
T5 sequence (P41595 whole entry): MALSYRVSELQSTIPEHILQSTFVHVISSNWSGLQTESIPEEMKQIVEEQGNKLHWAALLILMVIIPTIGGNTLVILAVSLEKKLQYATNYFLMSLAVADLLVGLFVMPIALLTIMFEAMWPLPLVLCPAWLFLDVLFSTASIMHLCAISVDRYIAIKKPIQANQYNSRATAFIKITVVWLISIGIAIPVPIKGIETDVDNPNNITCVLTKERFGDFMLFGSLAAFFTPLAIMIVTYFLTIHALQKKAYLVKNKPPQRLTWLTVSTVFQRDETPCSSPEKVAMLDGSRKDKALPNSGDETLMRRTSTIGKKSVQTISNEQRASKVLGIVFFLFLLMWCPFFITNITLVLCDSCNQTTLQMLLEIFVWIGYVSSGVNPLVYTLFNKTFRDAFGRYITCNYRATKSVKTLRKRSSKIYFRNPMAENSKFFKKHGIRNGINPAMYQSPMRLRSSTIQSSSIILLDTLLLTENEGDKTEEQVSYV
The target in assay [9] is T4, Muscarinic acetylcholine receptor M2.
Assay [10] has as its target T5, 5-hydroxytryptamine receptor 2B. The class given is functional, cell-based. The source holds these as a separate data set.
Note: assay procedure not described here.

Histamine H3 receptor, sequence (Q9Y5N1 whole entry): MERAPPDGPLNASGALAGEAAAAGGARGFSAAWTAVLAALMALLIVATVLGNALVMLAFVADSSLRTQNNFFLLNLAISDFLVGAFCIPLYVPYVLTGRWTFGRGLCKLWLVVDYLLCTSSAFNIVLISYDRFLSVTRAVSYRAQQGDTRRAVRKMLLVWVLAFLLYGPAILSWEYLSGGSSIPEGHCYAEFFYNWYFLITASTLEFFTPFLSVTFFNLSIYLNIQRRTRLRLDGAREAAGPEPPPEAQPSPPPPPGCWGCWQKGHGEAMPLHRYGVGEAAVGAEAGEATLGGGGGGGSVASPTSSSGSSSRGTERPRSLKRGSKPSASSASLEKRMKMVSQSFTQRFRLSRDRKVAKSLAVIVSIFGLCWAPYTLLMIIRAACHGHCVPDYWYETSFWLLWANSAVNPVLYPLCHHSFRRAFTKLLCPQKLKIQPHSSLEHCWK
D(3) dopamine receptor, sequence (P35462 whole entry): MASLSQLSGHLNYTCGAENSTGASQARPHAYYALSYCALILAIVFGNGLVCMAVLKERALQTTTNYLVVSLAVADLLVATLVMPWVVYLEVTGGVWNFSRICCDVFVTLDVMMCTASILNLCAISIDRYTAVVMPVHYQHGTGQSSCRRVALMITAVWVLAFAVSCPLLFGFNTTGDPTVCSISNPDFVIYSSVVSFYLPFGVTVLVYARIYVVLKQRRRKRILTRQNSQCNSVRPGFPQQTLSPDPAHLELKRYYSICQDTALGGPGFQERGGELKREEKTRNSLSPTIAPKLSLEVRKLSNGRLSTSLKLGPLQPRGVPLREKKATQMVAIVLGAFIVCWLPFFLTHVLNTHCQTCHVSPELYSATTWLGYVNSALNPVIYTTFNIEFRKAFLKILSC
5-hydroxytryptamine receptor 2A, sequence (P28223 whole entry): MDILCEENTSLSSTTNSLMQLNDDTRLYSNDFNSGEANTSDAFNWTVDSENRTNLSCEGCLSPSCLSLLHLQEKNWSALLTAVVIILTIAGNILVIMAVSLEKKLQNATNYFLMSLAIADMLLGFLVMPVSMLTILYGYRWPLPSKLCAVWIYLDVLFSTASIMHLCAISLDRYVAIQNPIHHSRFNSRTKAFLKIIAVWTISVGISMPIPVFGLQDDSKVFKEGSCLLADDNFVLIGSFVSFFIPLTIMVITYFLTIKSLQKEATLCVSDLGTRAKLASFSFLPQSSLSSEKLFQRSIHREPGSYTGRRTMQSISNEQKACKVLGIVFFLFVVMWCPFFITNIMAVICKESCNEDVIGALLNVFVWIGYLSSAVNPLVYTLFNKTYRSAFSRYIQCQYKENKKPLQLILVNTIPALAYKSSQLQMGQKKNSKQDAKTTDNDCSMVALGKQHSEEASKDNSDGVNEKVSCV
cGMP-inhibited 3',5'-cyclic phosphodiesterase 3A, sequence (Q14432 whole entry): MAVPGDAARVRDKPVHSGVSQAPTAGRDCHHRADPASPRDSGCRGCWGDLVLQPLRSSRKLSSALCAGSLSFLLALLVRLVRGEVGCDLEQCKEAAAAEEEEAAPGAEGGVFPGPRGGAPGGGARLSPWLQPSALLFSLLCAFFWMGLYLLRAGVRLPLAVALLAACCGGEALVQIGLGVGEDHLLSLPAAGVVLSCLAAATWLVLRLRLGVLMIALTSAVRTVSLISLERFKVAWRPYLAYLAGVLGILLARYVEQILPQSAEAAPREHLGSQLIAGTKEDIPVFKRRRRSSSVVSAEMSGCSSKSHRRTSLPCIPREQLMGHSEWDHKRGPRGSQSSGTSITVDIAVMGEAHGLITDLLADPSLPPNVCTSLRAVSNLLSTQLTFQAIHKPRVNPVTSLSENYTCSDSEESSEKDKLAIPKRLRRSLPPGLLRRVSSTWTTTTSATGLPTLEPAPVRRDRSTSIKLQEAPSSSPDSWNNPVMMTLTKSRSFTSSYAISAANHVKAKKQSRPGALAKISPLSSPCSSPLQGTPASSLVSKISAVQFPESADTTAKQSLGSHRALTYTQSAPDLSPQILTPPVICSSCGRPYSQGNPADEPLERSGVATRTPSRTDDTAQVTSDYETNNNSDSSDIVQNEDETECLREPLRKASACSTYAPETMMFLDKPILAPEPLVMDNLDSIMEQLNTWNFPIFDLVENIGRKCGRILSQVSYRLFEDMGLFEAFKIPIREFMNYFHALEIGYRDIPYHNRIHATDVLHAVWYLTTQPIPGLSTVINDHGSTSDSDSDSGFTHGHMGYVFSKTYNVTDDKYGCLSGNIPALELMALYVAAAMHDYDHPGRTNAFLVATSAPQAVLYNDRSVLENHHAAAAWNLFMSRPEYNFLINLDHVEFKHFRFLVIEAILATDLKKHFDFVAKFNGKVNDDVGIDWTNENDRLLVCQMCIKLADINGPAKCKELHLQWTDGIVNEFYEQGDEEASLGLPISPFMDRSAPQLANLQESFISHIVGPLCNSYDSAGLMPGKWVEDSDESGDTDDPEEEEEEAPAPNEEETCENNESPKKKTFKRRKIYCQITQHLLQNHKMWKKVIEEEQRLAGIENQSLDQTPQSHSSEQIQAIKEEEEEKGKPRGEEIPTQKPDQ
Histamine H1 receptor, sequence (P35367 whole entry): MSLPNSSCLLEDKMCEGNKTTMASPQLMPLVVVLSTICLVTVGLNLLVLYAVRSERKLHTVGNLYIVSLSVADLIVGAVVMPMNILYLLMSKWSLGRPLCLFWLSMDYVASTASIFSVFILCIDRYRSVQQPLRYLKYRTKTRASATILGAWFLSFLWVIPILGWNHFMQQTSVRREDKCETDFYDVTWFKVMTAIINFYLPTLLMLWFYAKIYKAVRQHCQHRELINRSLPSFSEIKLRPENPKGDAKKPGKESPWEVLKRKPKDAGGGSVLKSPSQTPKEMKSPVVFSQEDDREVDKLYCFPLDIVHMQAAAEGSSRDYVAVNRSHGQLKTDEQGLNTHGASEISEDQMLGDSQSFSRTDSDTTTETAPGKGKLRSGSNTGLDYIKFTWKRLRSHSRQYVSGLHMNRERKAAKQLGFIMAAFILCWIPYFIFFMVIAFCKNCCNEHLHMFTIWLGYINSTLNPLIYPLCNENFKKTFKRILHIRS

One may read the AC50 as the concentration giving half of the maximal activity seen. Turning to `CN1CCN(C2=Nc3ccccc3Oc3ccc(Cl)cc32)CC1` [LOXAPINE], the half-maximal activity concentration (AC50) was above 30 µM at Cannabinoid receptor 1; 0.44 µM in assay [1]; above 10 µM in assay [2]; above 10 µM at Histamine H3 receptor; above 30 µM in assay [3]; above 30 µM on Glucocorticoid receptor. Further, the half-maximal activity concentration (AC50) in [4] is above 30 µM; at D(3) dopamine receptor, 0.019 µM; in assay [5] it was 0.794 µM.
As to `CNCc1ccc(-c2[nH]c3cc(F)cc4c3c2CCNC4=O)cc1` [RUCAPARIB], the AC50 in assay [6] was above 10 µM; on Histamine H1 receptor, above 10 µM; on Glucocorticoid receptor it was above 30 µM; in assay [7], above 10 µM; in [5] it was above 10 µM.
For the compound `Cc1ccccc1N1CCN(CCc2nnc3n2CCCC3)CC1` [DAPIPRAZOLE], the concentration at half-maximal activity (AC50) was above 30 µM in assay [8], above 30 µM in [4], 7.61 µM in [9] and 16.6 µM on D(3) dopamine receptor.
On to `CC(C(=O)O)c1ccc(-c2ccccc2)c(F)c1` (stereo unspecified) [FLURBIPROFEN], for which the concentration at half-maximal activity (AC50) was above 10 µM in assay [2]; above 30 µM in assay [3]; above 30 µM in assay [8]; above 30 µM on Glucocorticoid receptor; above 10 µM in assay [7]; above 30 µM in assay [4]. Besides, the half-maximal activity concentration (AC50) in assay [9] is above 30 µM; at D(3) dopamine receptor it was above 30 µM; in [10] it was above 10 µM.
For the compound `C=C1CC[C@H](O)C/C1=C/C=C1\CCC[C@]2(C)[C@@H]([C@H](C)/C=C/[C@H](C)C(C)C)CC[C@@H]12` [ERGOCALCIFEROL], the AC50 (in assay [8]; in assay [4]; in [9]; on D(3) dopamine receptor) was above 30 µM throughout.
Turning to `C=CCNc1nc(NCC=C)nc(N2CCN(C(c3ccc(F)cc3)c3ccc(F)cc3)CC2)n1` [ALMITRINE], the concentration at half-maximal activity (AC50) (in [6]; in [2]; at Histamine H3 receptor; on Histamine H1 receptor; on Glucocorticoid receptor; in assay [7]) was above 30 µM each time. Also, the AC50 in [5] and in [10] was above 30 µM each time.
In the case of `CC(C)[C@H](N)C(=O)OCC(CO)OCn1cnc2c(=O)nc(N)[nH]c21` (stereo partly specified) [VALGANCICLOVIR], the AC50 (in assay [6]; in assay [2]; on Histamine H3 receptor; on Histamine H1 receptor; at Glucocorticoid receptor; in assay [7]) was above 30 µM each time. For the same compound, the AC50 in assay [5] and in assay [10] was above 30 µM throughout.
For the compound `Cc1c(N(C)CS(=O)(=O)O)c(=O)n(-c2ccccc2)n1C` [METAMIZOLE], the half-maximal activity concentration (AC50) (in assay [3]; in assay [8]; in assay [4]; in [9]; at D(3) dopamine receptor) was above 30 µM in each case.
With `COc1ccc(CN(CCN(C)C)c2ccccn2)cc1` [PYRILAMINE], the half-maximal activity concentration (AC50) is above 30 µM in assay [3], above 30 µM in [8], above 30 µM in assay [4] and 8.61 µM in assay [9].
As to `COC(=O)c1ccc(O)cc1` [METHYLPARABEN], the half-maximal activity concentration (AC50) (in assay [3]; in assay [8]; in [4]; in assay [9]; at D(3) dopamine receptor) was above 30 µM in each case.
On to `CCCC(CCC)C(N)=O` [VALPROMIDE], for which the half-maximal activity concentration (AC50) on Cannabinoid receptor 1 was above 30 µM; in assay [1] it was above 30 µM; in assay [2] it was above 10 µM; on Histamine H3 receptor it was above 10 µM; at Histamine H1 receptor, above 10 µM; on Glucocorticoid receptor, above 30 µM. Moreover, the concentration at half-maximal activity (AC50) in assay [7], in assay [5] and in assay [10] was above 10 µM in each case.
With `CC(C)(C)NC[C@H](O)COc1cccc2c1CCCC2=O` [LEVOBUNOLOL], the AC50 (in [3]; in assay [8]; in assay [4]; in [9]; on D(3) dopamine receptor) was above 30 µM throughout.
For `CC(=O)O[C@]1(C(C)=O)CC[C@H]2[C@@H]3C=C(Cl)C4=CC(=O)CC[C@]4(C)[C@H]3CC[C@@]21C` [CHLORMADINONE ACETATE], the AC50 is above 30 µM in assay [3]; above 30 µM in assay [8]; above 30 µM in assay [4]; 25.3 µM in assay [9]; above 30 µM on D(3) dopamine receptor.
For `Cc1cnc(C(=O)NCCc2ccc(S(=O)(=O)NC(=O)NC3CCCCC3)cc2)cn1` [GLIPIZIDE], the AC50 at Histamine H3 receptor was above 10 µM; in assay [3], 14 µM; at Glucocorticoid receptor, above 30 µM; in assay [4] it was above 30 µM.
Regarding `Cc1cc(C(C)(C)C)cc(C)c1CC1=NCCN1` [XYLOMETAZOLINE], the AC50 at Cannabinoid receptor 1 is above 30 µM; in assay [2] it was above 30 µM; at Histamine H3 receptor, 6.9 µM; on Histamine H1 receptor, above 30 µM; in assay [3], 0.0003 µM; at Glucocorticoid receptor it was above 30 µM. For the same compound, the AC50 in assay [7] is 12.1 µM; in [5], 14.4 µM.
In the case of `CN(C)CCCNc1c2ccccc2nc2cccc([N+](=O)[O-])c12` [NITRACRINE], the AC50 on Cannabinoid receptor 1 was above 30 µM; in [1], 6.7 µM; in [2] it was above 30 µM; on Histamine H3 receptor, above 10 µM; on Histamine H1 receptor, 14 µM; on Glucocorticoid receptor, above 30 µM. Moreover, the AC50 turned out to be 16 µM in assay [7], 11 µM in assay [5] and 0.76 µM in [10].
On to `CC(C)COCC(CN(Cc1ccccc1)c1ccccc1)N1CCCC1` (stereo unspecified) [BEPRIDIL], for which the AC50 was 22 µM in [6]; above 30 µM at Histamine H3 receptor; 8.6 µM at Histamine H1 receptor; above 30 µM on Glucocorticoid receptor; above 30 µM in assay [7]; 23 µM in [5]. Also, the concentration at half-maximal activity (AC50) in assay [10] turned out to be 28 µM.
For the compound `Nc1ncn([C@H]2C[C@H](O)[C@@H](CO)O2)c(=O)n1` [DECITABINE], the AC50 (in assay [6]; in [2]; at Histamine H3 receptor; on Histamine H1 receptor; at Glucocorticoid receptor; in assay [7]) was above 30 µM in each case. Also, the AC50 in assay [5] and in assay [10] was above 30 µM throughout.
